Results reported in ChEMBL document CHEMBL3046418, “Synthesis and Herbicidal Activity of Sulfonylurea Compounds with Imidazo [1, 2-a] pyridine Moiety” (2001).

What was measured:
Type in all cases: functional
Mutarda arvensis [1] = test: Herbicidal activity against Sinapis arvensis at 125 g/ha after 3 weeks by post-emergence greenhouse test
Mutarda arvensis [2] = test: Herbicidal activity against Sinapis arvensis at 250 g/ha after 3 weeks by post-emergence greenhouse test
Triticum aestivum [3] = test: Phytotoxic activity against Triticum aestivum (wheat) at 125 g/ha after 3 weeks by post-emergence greenhouse test
Triticum aestivum [4] = test: Phytotoxic activity against Triticum aestivum (wheat) at 500 g/ha after 3 weeks by post-emergence greenhouse test
Matricaria chamomilla [5] = test: Herbicidal activity against Matricaria chamomilla at 500 g/ha after 3 weeks by post-emergence greenhouse test
Triticum aestivum [6] = test: Phytotoxic activity against Triticum aestivum (wheat) at 250 g/ha after 3 weeks by post-emergence greenhouse test
Bromus tectorum [7] = test: Herbicidal activity against Bromus tectorum at 125 g/ha after 3 weeks by post-emergence greenhouse test
Alopecurus myosuroides [8] = test: Herbicidal activity against Alopecurus myosuroides at 125 g/ha after 3 weeks by post-emergence greenhouse test
Matricaria chamomilla [9] = test: Herbicidal activity against Matricaria chamomilla at 250 g/ha after 3 weeks by post-emergence greenhouse test
Avena fatua [10] = test: Herbicidal activity against Avena fatua at 250 g/ha after 3 weeks by post-emergence greenhouse test
Bromus tectorum [11] = test: Herbicidal activity against Bromus tectorum at 250 g/ha after 3 weeks by post-emergence greenhouse test
Bromus tectorum [12] = test: Herbicidal activity against Bromus tectorum at 500 g/ha after 3 weeks by post-emergence greenhouse test
Avena fatua [13] = test: Herbicidal activity against Avena fatua at 500 g/ha after 3 weeks by post-emergence greenhouse test
Alopecurus myosuroides [14] = test: Herbicidal activity against Alopecurus myosuroides at 250 g/ha after 3 weeks by post-emergence greenhouse test
Stellaria media [15] = test: Herbicidal activity against Stellaria media at 125 g/ha after 3 weeks by post-emergence greenhouse test
Mutarda arvensis [16] = test: Herbicidal activity against Sinapis arvensis at 500 g/ha after 3 weeks by post-emergence greenhouse test
Matricaria chamomilla [17] = test: Herbicidal activity against Matricaria chamomilla at 125 g/ha after 3 weeks by post-emergence greenhouse test
Stellaria media [18] = test: Herbicidal activity against Stellaria media at 500 g/ha after 3 weeks by post-emergence greenhouse test
Alopecurus myosuroides [19] = test: Herbicidal activity against Alopecurus myosuroides at 500 g/ha after 3 weeks by post-emergence greenhouse test
Stellaria media [20] = test: Herbicidal activity against Stellaria media at 250 g/ha after 3 weeks by post-emergence greenhouse test
Avena fatua [21] = test: Herbicidal activity against Avena fatua at 125 g/ha after 3 weeks by post-emergence greenhouse test
Stellaria media [22] = test: Herbicidal activity against Stellaria media at 400 g/ha after 3 weeks by post-emergence greenhouse test
Bromus tectorum [23] = test: Herbicidal activity against Bromus tectorum after 4 weeks by pre-emergence greenhouse test; parameters: concentration or dose not given beside the values
Chenopodium album [24] = test: Herbicidal activity against Chenopodium album at 100 g/ha after 3 weeks by post-emergence greenhouse test
Alopecurus myosuroides [25] = test: Herbicidal activity against Alopecurus myosuroides at 100 g/ha after 3 weeks by post-emergence greenhouse test
Matricaria chamomilla [26] = test: Herbicidal activity against Matricaria chamomilla at 25 g/ha after 3 weeks by post-emergence greenhouse test
Mutarda arvensis [27] = test: Herbicidal activity against Sinapis arvensis after 4 weeks by pre-emergence greenhouse test; parameters: concentration or dose not given beside the values
Avena fatua [28] = test: Herbicidal activity against Avena fatua at 400 g/ha after 3 weeks by post-emergence greenhouse test
Alopecurus myosuroides [29] = test: Herbicidal activity against Alopecurus myosuroides after 3 weeks by post-emergence greenhouse test; parameters: concentration or dose not given beside the values
Bromus tectorum [30] = test: Herbicidal activity against Bromus tectorum at 100 g/ha after 3 weeks by post-emergence greenhouse test
Stellaria media [31] = test: Herbicidal activity against Stellaria media at 100 g/ha after 3 weeks by post-emergence greenhouse test
Bromus tectorum [32] = test: Herbicidal activity against Bromus tectorum after 3 weeks by post-emergence greenhouse test; parameters: concentration or dose not given beside the values
Triticum aestivum [33] = test: Phytotoxic activity against Triticum aestivum (wheat) at 25 g/ha after 3 weeks by post-emergence greenhouse test
Chenopodium album [34] = test: Herbicidal activity against Chenopodium album after 4 weeks by pre-emergence greenhouse test; parameters: concentration or dose not given beside the values
Avena fatua [35] = test: Herbicidal activity against Avena fatua after 4 weeks by pre-emergence greenhouse test; parameters: concentration or dose not given beside the values
Triticum aestivum [36] = test: Phytotoxic activity against Triticum aestivum (wheat) after 4 weeks by pre-emergence greenhouse test
Avena fatua [37] = test: Herbicidal activity against Avena fatua at 25 g/ha after 3 weeks by post-emergence greenhouse test
Stellaria media [38] = test: Herbicidal activity against Stellaria media at 25 g/ha after 3 weeks by post-emergence greenhouse test
Mutarda arvensis [39] = test: Herbicidal activity against Sinapis arvensis at 400 g/ha after 3 weeks by post-emergence greenhouse test
Chenopodium album [40] = test: Herbicidal activity against Chenopodium album after 3 weeks by post-emergence greenhouse test; parameters: concentration or dose not given beside the values
Triticum aestivum [41] = test: Phytotoxic activity against Triticum aestivum (wheat) after 3 weeks by post-emergence greenhouse test; parameters: concentration or dose not given beside the values
Matricaria chamomilla [42] = test: Herbicidal activity against Matricaria chamomilla after 3 weeks by post-emergence greenhouse test; parameters: concentration or dose not given beside the values
Alopecurus myosuroides [43] = test: Herbicidal activity against Alopecurus myosuroides at 400 g/ha after 3 weeks by post-emergence greenhouse test
Matricaria chamomilla [44] = test: Herbicidal activity against Matricaria chamomilla at 100 g/ha after 3 weeks by post-emergence greenhouse test
Triticum aestivum [45] = test: Phytotoxic activity against Triticum aestivum (wheat) at 100 g/ha after 3 weeks by post-emergence greenhouse test
Alopecurus myosuroides [46] = test: Herbicidal activity against Alopecurus myosuroides at 25 g/ha after 3 weeks by post-emergence greenhouse test
Chenopodium album [47] = test: Herbicidal activity against Chenopodium album at 25 g/ha after 3 weeks by post-emergence greenhouse test
Bromus tectorum [48] = test: Herbicidal activity against Bromus tectorum at 25 g/ha after 3 weeks by post-emergence greenhouse test
Stellaria media [49] = test: Herbicidal activity against Stellaria media after 4 weeks by pre-emergence greenhouse test; parameters: concentration or dose not given beside the values
Bromus tectorum [50] = test: Herbicidal activity against Bromus tectorum at 400 g/ha after 3 weeks by post-emergence greenhouse test
Mutarda arvensis [51] = test: Herbicidal activity against Sinapis arvensis at 100 g/ha after 3 weeks by post-emergence greenhouse test
Avena fatua [52] = test: Herbicidal activity against Avena fatua after 3 weeks by post-emergence greenhouse test; parameters: concentration or dose not given beside the values
Matricaria chamomilla [53] = test: Herbicidal activity against Matricaria chamomilla at 400 g/ha after 3 weeks by post-emergence greenhouse test
Alopecurus myosuroides [54] = test: Herbicidal activity against Alopecurus myosuroides after 4 weeks by pre-emergence greenhouse test; parameters: concentration or dose not given beside the values
Matricaria chamomilla [55] = test: Herbicidal activity against Matricaria chamomilla after 4 weeks by pre-emergence greenhouse test; parameters: concentration or dose not given beside the values
Chenopodium album [56] = test: Herbicidal activity against Chenopodium album at 400 g/ha after 3 weeks by post-emergence greenhouse test
Mutarda arvensis [57] = test: Herbicidal activity against Sinapis arvensis at 25 g/ha after 3 weeks by post-emergence greenhouse test
Triticum aestivum [58] = test: Phytotoxic activity against Triticum aestivum (wheat) at 400 g/ha after 3 weeks by post-emergence greenhouse test
Stellaria media [59] = test: Herbicidal activity against Stellaria media after 3 weeks by post-emergence greenhouse test; parameters: concentration or dose not given beside the values
Mutarda arvensis [60] = test: Herbicidal activity against Sinapis arvensis after 3 weeks by post-emergence greenhouse test; parameters: concentration or dose not given beside the values
Avena fatua [61] = test: Herbicidal activity against Avena fatua at 100 g/ha after 3 weeks by post-emergence greenhouse test

## CSc1nnc(C(C)(C)C)c(=O)n1N [METRIBUZIN]
Mutarda arvensis [1]
  Activity: 100%
Mutarda arvensis [2]
  Activity: 100%
Triticum aestivum [3]
  Phytotoxicity: 0%
Triticum aestivum [4]
  Phytotoxicity: 1%
Matricaria chamomilla [5]
  Activity: 100%
Triticum aestivum [6]
  Phytotoxicity: 1%
Bromus tectorum [7]
  Activity: 1%
Alopecurus myosuroides [8]
  Activity: 51%
Matricaria chamomilla [9]
  Activity: 100%
Avena fatua [10]
  Activity: 1%
Bromus tectorum [11]
  Activity: 1%
Bromus tectorum [12]
  Activity: 88%
Avena fatua [13]
  Activity: 76%
Alopecurus myosuroides [14]
  Activity: 51%
Stellaria media [15]
  Activity: 88%
Mutarda arvensis [16]
  Activity: 100%
Matricaria chamomilla [17]
  Activity: 51%
Stellaria media [18]
  Activity: 100%
Alopecurus myosuroides [19]
  Activity: 100%
Stellaria media [20]
  Activity: 100%
Avena fatua [21]
  Activity: 0%

## CCS(=O)(=O)c1nc2ccccn2c1S(=O)(=O)NC(=O)Nc1nc(OC)cc(OC)n1 [SULFOSULFURON]
Stellaria media [22]
  Activity: 88%
Bromus tectorum [23]
  Activity: 88%
Chenopodium album [24]
  Activity: 1%
Alopecurus myosuroides [25]
  Activity: 88%
Matricaria chamomilla [26]
  Activity: 88%
Mutarda arvensis [27]
  Activity: 88%
Avena fatua [28]
  Activity: 0%
Alopecurus myosuroides [29]
  Activity: 88%
Bromus tectorum [30]
  Activity: 88%
Stellaria media [31]
  Activity: 88%
Bromus tectorum [32]
  Activity: 88%
Triticum aestivum [33]
  Phytotoxicity: 0%
Chenopodium album [34]
  Activity: 88%
Avena fatua [35]
  Activity: 51%
Triticum aestivum [36]
  Phytotoxicity: 0%
Avena fatua [37]
  Activity: 88%
Stellaria media [38]
  Activity: 88%
Mutarda arvensis [39]
  Activity: 88%
Chenopodium album [40]
  Activity: 51%
Triticum aestivum [41]
  Activity: 0%
Matricaria chamomilla [42]
  Activity: 88%
Alopecurus myosuroides [43]
  Activity: 88%
Matricaria chamomilla [44]
  Activity: 88%
Triticum aestivum [45]
  Phytotoxicity: 0%
Alopecurus myosuroides [46]
  Activity: 88%
Chenopodium album [47]
  Activity: 1%
Bromus tectorum [48]
  Activity: 88%
Stellaria media [49]
  Activity: 88%
Bromus tectorum [50]
  Activity: 88%
Mutarda arvensis [51]
  Activity: 88%
Avena fatua [52]
  Activity: 88%
Matricaria chamomilla [53]
  Activity: 88%
Alopecurus myosuroides [54]
  Activity: 88%
Matricaria chamomilla [55]
  Activity: 88%
Chenopodium album [56]
  Activity: 51%
Mutarda arvensis [57]
  Activity: 88%
Triticum aestivum [58]
  Phytotoxicity: 0%
Stellaria media [59]
  Activity: 88%
Mutarda arvensis [60]
  Activity: 88%
Avena fatua [61]
  Activity: 88%
